Data from patent publication US5081284A, “Proteinase inhibitor” (Suntory Limited, priority 1989, dated 1992).
Read-outs that look alike come from different tables or passages of the source. Peptide text beside a SMILES is read from it. * marks the point of attachment. Cbz = O=C(OCc1ccccc1)*

How the values were obtained:
cathepsin B = cathepsin B (Bos taurus, UniProt P07688); assay: Anti-cathepsin activity (cathepsin B, benzyloxycarbonyl-L-lysine-p-nitrophenyl ester substrate); assay type: biochemical, bovine; details: Table 8 (Example 29); pH 5.1, 30° C., from bovine spleen; read-out: Inhibitory activity toward cathepsin B, IC50
Experimental: A mixture of a test compound of the present invention and an acetate buffer solution (25 mM, pH=5.1, with 1 mM EDTA, 3.15 ml) containing a substrate (benzyloxycarbonyl-L-lysine-p-nitrophenyl ester, 0.114 mg) was preincubated at 30° C. for 1 minute. To the mixture, a solution (0.05 ml) of cathepsin B (derived from bovine spleen; product of Sigma; 0.05 units) in the acetate buffer was added to start the reaction. Immediately after the start of reaction, the change in absorbance at 326 nm was measured and the inhibitory activity of the test compound was determined by comparison with the control solution.

calpain I = target: T1, calpain I (Homo sapiens, UniProt P07384); assay: Anti-calpain activity, calpain I (casein hydrolysis, Ross-Schatz method); assay type: biochemical
T1 sequence (P07384 1-714): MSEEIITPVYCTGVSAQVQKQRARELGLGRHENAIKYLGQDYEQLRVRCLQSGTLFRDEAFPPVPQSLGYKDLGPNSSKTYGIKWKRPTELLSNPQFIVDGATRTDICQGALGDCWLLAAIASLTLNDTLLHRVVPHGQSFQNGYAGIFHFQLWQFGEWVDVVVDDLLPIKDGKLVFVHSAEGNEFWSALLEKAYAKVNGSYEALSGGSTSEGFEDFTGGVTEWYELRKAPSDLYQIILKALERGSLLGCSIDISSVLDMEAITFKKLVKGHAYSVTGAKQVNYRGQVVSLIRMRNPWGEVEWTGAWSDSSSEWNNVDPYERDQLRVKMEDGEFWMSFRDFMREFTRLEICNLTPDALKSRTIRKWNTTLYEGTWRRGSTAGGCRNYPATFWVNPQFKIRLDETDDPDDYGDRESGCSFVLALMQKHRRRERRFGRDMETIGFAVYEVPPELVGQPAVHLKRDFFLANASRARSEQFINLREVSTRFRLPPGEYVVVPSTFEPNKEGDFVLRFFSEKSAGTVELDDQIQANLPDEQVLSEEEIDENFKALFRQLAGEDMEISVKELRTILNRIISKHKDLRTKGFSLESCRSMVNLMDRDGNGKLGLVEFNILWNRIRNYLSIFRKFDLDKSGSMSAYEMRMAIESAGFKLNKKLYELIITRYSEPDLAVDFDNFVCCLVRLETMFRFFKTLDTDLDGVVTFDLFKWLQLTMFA
T1 sequence (P04632 1-268 partner): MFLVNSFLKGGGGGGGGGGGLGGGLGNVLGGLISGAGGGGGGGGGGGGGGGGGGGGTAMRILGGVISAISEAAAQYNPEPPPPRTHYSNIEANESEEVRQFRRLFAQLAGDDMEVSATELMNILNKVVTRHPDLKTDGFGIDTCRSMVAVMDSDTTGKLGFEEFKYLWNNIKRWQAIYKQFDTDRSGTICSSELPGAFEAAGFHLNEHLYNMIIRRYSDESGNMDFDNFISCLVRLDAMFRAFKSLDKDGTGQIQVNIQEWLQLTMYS

papain = target: T2, papain (Carica papaya, UniProt P00784); assay: Anti-papain activity (casein hydrolysis, Lowry-Folin method); assay type: biochemical
T2 sequence (P00784 134-345): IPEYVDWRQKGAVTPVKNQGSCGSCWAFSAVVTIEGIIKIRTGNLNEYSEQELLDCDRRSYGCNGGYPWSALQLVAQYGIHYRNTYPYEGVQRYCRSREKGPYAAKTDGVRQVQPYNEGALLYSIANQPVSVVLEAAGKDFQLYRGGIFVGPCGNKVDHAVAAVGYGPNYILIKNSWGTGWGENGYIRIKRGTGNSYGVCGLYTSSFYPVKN
Experimental: (§1) A mixture of a test compound of the present invention, papain (0.015 units) and a citrate buffer solution (20 mM, pH=6.2,1 ml) containing EDTA (0.88 mg) was preincubated at 30° C. for 5 minutes and a substrate solution (1 ml) was added to start the reaction. The substrate was a 1% solution of casein in the citrate buffer. The reaction was performed at 30° C. for 20 minutes. The reaction was quenched by adding 6.5% trichloroacetic acid (3 ml) to the reaction solution. The amount of casein that had been hydrolyzed enzymatically in the trichloroacetic acid soluble fraction was measured by the Lowry-Folin method and the inhibitory activity of the test compound was determined by comparison with the control solution.
as §1, with “pH=6.2, 1” for “pH=6.2,1”

calpain II = target: T3, calpain II (Homo sapiens, UniProt P17655); assay: Anti-calpain activity, calpain II (casein hydrolysis, Ross-Schatz method); assay type: biochemical
T3 sequence (P17655 1-700): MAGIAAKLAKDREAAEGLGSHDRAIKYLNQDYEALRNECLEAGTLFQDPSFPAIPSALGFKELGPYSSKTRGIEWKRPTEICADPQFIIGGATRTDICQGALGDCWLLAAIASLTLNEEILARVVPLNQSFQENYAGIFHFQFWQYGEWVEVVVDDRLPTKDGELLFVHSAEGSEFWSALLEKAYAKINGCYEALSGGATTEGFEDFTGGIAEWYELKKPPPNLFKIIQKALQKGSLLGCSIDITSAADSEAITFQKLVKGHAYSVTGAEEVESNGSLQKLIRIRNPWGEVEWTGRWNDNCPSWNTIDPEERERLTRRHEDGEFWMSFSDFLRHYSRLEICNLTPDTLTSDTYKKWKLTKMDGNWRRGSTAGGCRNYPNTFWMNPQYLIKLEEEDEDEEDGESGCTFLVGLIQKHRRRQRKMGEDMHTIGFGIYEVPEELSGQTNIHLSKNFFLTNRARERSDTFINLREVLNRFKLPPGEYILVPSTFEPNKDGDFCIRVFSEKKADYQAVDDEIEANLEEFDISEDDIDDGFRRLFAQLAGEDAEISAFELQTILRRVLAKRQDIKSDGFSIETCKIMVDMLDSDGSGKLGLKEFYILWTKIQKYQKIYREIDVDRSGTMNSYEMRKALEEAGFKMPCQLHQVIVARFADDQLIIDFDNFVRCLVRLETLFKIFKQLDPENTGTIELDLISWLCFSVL
T3 sequence (P04632 1-268 partner): T1 sequence (P04632 1-268 partner)

[1] = Table 6 (Example 29), pH 7.5, 30° C., 30 minutes, casein, read-out: Inhibitory activity toward calpain I, IC50
[2] = Table 5 (Example 29), pH 6.2, 30° C., 20 minutes, casein, read-out: Inhibitory activity toward papain, IC50
[3] = Table 7 (Example 29), pH 7.5, 30° C., 30 minutes, casein, read-out: Inhibitory activity toward calpain II, IC50
[4] = Table 3 (Example 28), pH 7.5, 30° C., 30 minutes, casein, read-out: Inhibitory activity toward calpain I, IC50
[5] = Table 4 (Example 28), pH 7.5, 30° C., 30 minutes, casein, read-out: Inhibitory activity toward calpain II, IC50
[6] = Table 2 (Example 28), pH 6.2, 30° C., 20 minutes, casein, read-out: Inhibitory activity toward papain, IC50

Compound | IC50 (cathepsin B) | IC50 (calpain I; [1]) | IC50 (calpain II; [5]) | other results
CCCCCCCC(=O)N[C@@H](CC(C)C)C(=O)N[C@H](C=O)CCCC [Example 1, N-caprylyl-L-leucyl-L-norleucinal] | 110 nM | 160 nM |  | 
CCCCCC(=O)N[C@@H](CC(C)C)C(=O)N[C@H](C=O)CCCC [Example 2, N-caproyl-L-leucyl-L-norleucinal] | 9200 nM |  |  | 
CCCC[C@@H](C=O)NC(=O)[C@H](CC(C)C)NC(=O)CC(C)C [Example 3, N-isovaleryl-L-leucyl-L-norleucinal] | 510 nM | 100 nM |  | IC50 (papain; [2]): 120 nM; IC50 (calpain II; [3]): 130 nM
CCCC[C@@H](C=O)NC(=O)[C@H](CC(C)C)NC(=O)OC(C)(C)C [Example 4, N-(t-butyloxycarbonyl)-L-leucyl-L-norleucinal] | 58 nM | 30 nM |  | IC50 (calpain II; [3]): 120 nM
CCCC[C@@H](C=O)NC(=O)[C@H](CC(C)C)NC(=O)OC12CC3CC(CC(C3)C1)C2 [Example 5, N-adamantyloxycarbonyl-L-leucyl-L-norleucinal] | 180 nM | 150 nM |  | IC50 (papain): 210 nM
CCCC[C@@H](C=O)NC(=O)[C@H](CC(C)C)NC(=O)OCc1ccc(Cl)cc1 [Example 6, N-(p-chlorobenzyloxycarbonyl)-L-leucyl-L-norleucinal] | 70 nM | 87 nM |  | IC50 (papain; [2]): 58 nM; IC50 (calpain II; [3]): 130 nM
CCCC[C@@H](C=O)NC(=O)[C@H](CC(C)C)NC(=O)OCC(Cl)(Cl)Cl [Example 10, N-(2,2,2-trichloroethyloxycarbonyl)-L-leucyl-L-norleucinal] | 330 nM | 96 nM |  | IC50 (papain; [2]): 260 nM
CCCC[C@@H](C=O)NC(=O)[C@H](CC(C)C)NC(=O)OCC[Si](C)(C)C [Example 11, N-(2-trimethylsilylethyloxycarbonyl)-L-leucyl-L-norleucinal] | 960 nM |  |  | 
CCCC[C@@H](C=O)NC(=O)[C@H](CC(C)C)NS(=O)(=O)c1ccc(C)cc1 [Example 12, N-(p-toluenesulfonyl)-L-leucyl-L-norleucinal] | 1200 nM | 110 nM |  | IC50 (papain; [2]): 180 nM
CCCC[C@@H](C=O)NC(=O)[C@H](CC(C)C)NC(c1ccccc1)(c1ccccc1)c1ccccc1 [Example 15, N-triphenylmethyl-L-leucyl-L-norleucinal] | 32000 nM |  |  | 
CCCC[C@@H](C=O)NC(=O)[C@H](CC(C)C)NC(C)=CC(=O)c1ccccc1 [Example 16, N-(2-benzoyl-1-methylvinyl)-L-leucyl-L-norleucinal] | 7000 nM | 400 nM |  | IC50 (papain; [2]): 96 nM
CCCC[C@@H](C=O)NC(=O)[C@H](CC(C)C)N1C(=O)c2ccccc2C1=O [Example 17, N-phthaloyl-L-leucyl-L-norleucinal] | 100000 nM |  |  | 
CCCC[C@@H](C=O)NC(=O)[C@H](CCCC)NC(=O)OCc1ccccc1 [Example 18, N-benzyloxycarbonyl-L-norleucyl-L-norleucinal] | 110 nM | 700 nM |  | 
CC(C)C[C@H](NC(=O)OCc1ccccc1)C(=O)N[C@H](C=O)Cc1ccccc1 [Example 19, N-benzyloxycarbonyl-L-leucyl-L-phenylalaninal] (Cbz-Leu-Phe-aldehyde) |  |  | 35 nM | IC50 (calpain I; [4]): 100 nM
CCCC[C@@H](C=O)NC(=O)[C@H](CC(C)C)NC(=O)OCc1ccccc1 [Example 20, N-benzyloxycarbonyl-L-leucyl-L-norleucinal] |  | 710 nM | 34 nM | IC50 (calpain I; [4]): 52 nM; IC50 (papain; [2]): 310 nM; IC50 (calpain II; [3]): 130 nM
CSCC[C@@H](C=O)NC(=O)[C@H](CC(C)C)NC(=O)OCc1ccccc1 [Example 21, N-benzyloxycarbonyl-L-leucyl-L-methioninal] (Cbz-Leu-Met-aldehyde) |  |  | 25 nM | 
CC(C)C[C@H](NC(=O)CCCc1ccccc1)C(=O)N[C@H](C=O)Cc1ccccc1 [Example 22, N-(4-phenyl)butanoyl-L-leucyl-L-phenylalaninal] |  |  | 29 nM | IC50 (papain; [6]): 18 nM
CCCC[C@@H](C=O)NC(=O)[C@H](CC(C)C)NC(=O)CCCc1ccccc1 [Example 23, N-(4-phenylbutanoyl)-L-leucyl-L-norleucinal] |  |  | 320 nM | IC50 (calpain I; [4]): 40 nM; IC50 (papain; [6]): 15 nM
CSCC[C@@H](C=O)NC(=O)[C@H](CC(C)C)NC(=O)CCCc1ccccc1 [Example 24, N-(4-phenyl)butanoyl-L-leucyl-L-methioninal] |  |  | 71 nM | IC50 (calpain I; [4]): 38 nM; IC50 (papain; [6]): 19 nM
CCCC[C@H](NC(=O)[C@H](CC(C)C)NC(=O)OCc1ccccc1)C(=O)CCl [Example 26, N-benzyloxycarbonyl-L-leucine 1s-chloroacetyl-n-pentylamide] |  |  | 120 nM | IC50 (calpain I; [4]): 150 nM; IC50 (papain; [6]): 12 nM
CCCC[C@H](NC(=O)[C@H](CC(C)C)NC(=O)CCCc1ccccc1)C(=O)CCl [Example 27, N-(4-phenylbutanoyl)-L-leucyl-L-norleucyl chloromethyl] |  |  | 140 nM | IC50 (calpain I; [4]): 71 nM; IC50 (papain; [6]): 25 nM
CC(=O)N[C@@H](CC(C)C)C(=O)N[C@@H](CC(C)C)C(=O)N[C@H](C=O)CCCNC(=N)N [Leupeptin, reference compound] |  |  |  | IC50 (calpain I): 210 nM; IC50 (papain; [6]): 53 nM; IC50 (calpain II): 940 nM
